Counter-ions that a name gives are not always drawn. Like-named read-outs stand apart in the source and are kept apart here.
Tests used:
Parameters in all cases: species or system AML cell lines (8); Primary HTS, single concentration about 10 uM, Cell Titer Glo viability; log10 luminescence, per cent inhibition relative to cycloheximide control
Settings in all cases: 72 h, relative to cycloheximide control, log10 luminescence, inhibitor
CMK = tested on: CMK
MOLM-13 = tested on: MOLM-13
CHRF288-11 = tested on: CHRF288-11
CMS = tested on: CMS
ML-2 = tested on: ML-2
U937 = tested on: U937
M07e = tested on: M07e
MV4-11 = tested on: MV4-11

Compound	CMK %inh (CMK) [%]	MOLM-13 %inh (MOLM-13) [%]	CHRF288-11 %inh (CHRF288-11) [%]	CMS %inh (CMS) [%]	ML-2 %inh (ML-2) [%]	U937 %inh (U937) [%]	M07e %inh (M07e) [%]	MV4-11 %inh (MV4-11) [%]	CMK %inh (CMK; CMK %inh, 10 µM) [%]	MOLM-13 %inh (MOLM-13; MOLM-13 %inh, 10 µM) [%]	CHRF288-11 %inh (CHRF288-11; CHRF288-11 %inh, 10 µM) [%]	CMS %inh (CMS; CMS %inh, 10 µM) [%]	ML-2 %inh (ML-2; ML-2 %inh, 10 µM) [%]	U937 %inh (U937; U937 %inh, 10 µM) [%]	M07e %inh (M07e; M07e %inh, 10 µM) [%]	MV4-11 %inh (MV4-11; MV4-11 %inh, 10 µM) [%]
Cn1cc(C2=C(c3cn(C)c4cc(Cl)ccc34)C(=O)NC2=O)c2ccccc21 [SJ000581078-1]	127.5	85.69	127	103.6	61.36	87.46	100	84.42								
C[C@H]1O[C@@H](O[C@H]2[C@@H](O)C[C@H](O[C@H]3[C@@H](O)C[C@H](O[C@H]4CC[C@@]5(C)[C@H](CC[C@@H]6[C@@H]5C[C@@H](O)[C@]5(C)[C@@H](C7=CC(=O)OC7)CC[C@]65O)C4)O[C@@H]3C)O[C@@H]2C)C[C@H](O)[C@@H]1O [SJ000285739-6, DIGOXIN]									86.52	91.77	118.6	96.75	63.97	81.18	102.6	80.5
CC=CC1=C(C(=O)O)N2C(=O)[C@@H](NC(=O)[C@H](N)c3ccc(O)cc3)[C@H]2SC1 [SJ000565172-3, CEFPROZIL]									-7.257	-1.663	-2.278	0.3567	-1.603	-1.915	-2.148	-2.606
Nc1nc(-c2cccc(Cl)c2)c(-c2ccc3ncccc3n2)s1 [SJ000573287-1, FTTA/246/163/2]	-4.613	-0.7857	1.906	0.5039	2.244	-2.159	1.682	-3.034								
C[C@@H]1C[C@H]2[C@@H]3C[C@H](F)C4=CC(=O)C=C[C@]4(C)[C@@]3(F)[C@@H](O)C[C@]2(C)[C@@]1(OC(=O)c1ccco1)C(=O)SCF [SJ000556747-1, FLUTICASONE FUROATE]	4.028	2.731	5.244	42.17	5.949	15.51	0.03036	10.07								
COc1ccc(O)c(C(=O)c2ccc(C(=O)O[C@@H]3CCCNC[C@H]3NC(=O)c3ccncc3)cc2)c1F [SJ000580951-1]	131.3	81.23	109.9	13.47	61.64	74.66	15.86	68.34								
CC(=O)N[C@@H](Cc1ccc(OP(=O)(O)O)cc1)C(=O)N[C@H]1CCC(=O)N2CCC[C@@H](C(=O)NC3CCc4ccccc43)N2C1=O (some centres unmarked) [SJ000580953-1]	1.012	0.9252	3.338	-2.328	0.02578	-1.364	-2.209	-1.841								
Cc1ccc(Nc2nccc(N(C)c3ccc4c(C)n(C)nc4c3)n2)cc1S(N)(=O)=O [SJ000556680-2, PAZOPANIB | 786034 | GSK-786034 | GW-786034 | GW-786034B | PAZOPANIB HCL (GW786034 HCL)]	114.3	85.38	59.62	28.45	7.239	10.79	33.41	69.1								
CCCCNC(=O)[C@@H]1Cc2ccccc2N1C(=O)[C@@H](N)CC [SJ000772394-1, BUTABINDIDE OXALATE]	2.146	0.241	-4.064	0.61	-0.1457	2.937	-2.465	-1.569								
COc1cc2ncnc(Nc3ccc4c(cnn4Cc4ccccc4)c3)c2cc1OC [SJ000573101-1, R143/104/1]	0.8373	25.02	5.092	32.19	-2.157	6.042	1.834	12.83								
COc1ccc2cc(CCC(C)=O)ccc2c1 [SJ000285475-3, NABUMETONE]									0.8703	0.1221	-3.141	0.5932	2.121	-2.289	3.981	0.7976
COCCOC(=O)C1=C(C)NC(C)=C(C(=O)OC(C)C)C1c1cccc([N+](=O)[O-])c1 (centres unmarked) [SJ000285435-10, NIMODIPINE]									2.191	3.657	10.94	10.67	3.623	7.013	6.293	10.46
O=C1NC(=NCCCc2ccccc2)S/C1=C\c1ccc2ncccc2c1 [SJ000581127-1]	8.234	42.49	-2.357	4.391	2.496	2.066	6.993	18.37								
NC(=O)c1sc(-n2cnc3cc(C(F)(F)F)ccc32)cc1OCc1ccccc1Br [SJ000573185-1, U19121/197/1]	3.577	0.4978	0.2512	-1.069	-0.4297	-0.2413	-2.426	1.859								
CS(=O)(=O)N1CCC(Nc2ncc(C(=O)c3c(F)cccc3F)c(N)n2)CC1 [SJ000581114-1]	18.19	68.54	0.1318	2.662	1.661	3.392	7.028	0.7328								
CC(=O)Nc1cccc(C#Cc2cncnc2Nc2ccc(OCc3cccc(F)c3)c(Cl)c2)n1 [SJ000573352-1, U17741/29/4]	2.98	1.614	-2.536	-3.127	-1.648	0.4059	-1.039	2.175								

Reference: publication PMC6522510 (Nature Communications, 2019)
